Assay results from patent US20100168125A1, “INDOLIZINES AND AZA-ANALOG DERIVATIVES THEREOF AS CNS ACTIVE COMPOUNDS” (priority 2007, published 2010).
Where two headings read alike, the source gives them in different places.

Experiments:
[1] = biological target: T1, human D2long receptor (Homo sapiens, UniProt P14416); assay: radioligand binding with [^3H]spiperone, D2long; settings: read-out: Ki D2lo
T1 construct: expressed in transfected cells; host or cells: Chinese hamster ovary (CHO) cells, membranes
Description: (§1) For the determination of binding affinity to the receptors of the dopamine D2 family membranes were established carrying the human D2long, D2short, D3 or D4.4 receptor subtype expressed in Chinese hamster ovary cell lines. In principle, the binding experiments started when incubating an appropriate amount of membrane with the radioligand [^3H]spiperone and the particular test compounds diluted in a wide range of different concentrations from subnanomolar up to micromolar.

[2] = biological target: T2, human D4.4 receptor (Homo sapiens, UniProt P21917); assay: radioligand binding with [^3H]spiperone, D4.4
T2 construct: expressed in transfected cells; host or cells: Chinese hamster ovary (CHO) cells, membranes
T2 sequence (P21917 1-419): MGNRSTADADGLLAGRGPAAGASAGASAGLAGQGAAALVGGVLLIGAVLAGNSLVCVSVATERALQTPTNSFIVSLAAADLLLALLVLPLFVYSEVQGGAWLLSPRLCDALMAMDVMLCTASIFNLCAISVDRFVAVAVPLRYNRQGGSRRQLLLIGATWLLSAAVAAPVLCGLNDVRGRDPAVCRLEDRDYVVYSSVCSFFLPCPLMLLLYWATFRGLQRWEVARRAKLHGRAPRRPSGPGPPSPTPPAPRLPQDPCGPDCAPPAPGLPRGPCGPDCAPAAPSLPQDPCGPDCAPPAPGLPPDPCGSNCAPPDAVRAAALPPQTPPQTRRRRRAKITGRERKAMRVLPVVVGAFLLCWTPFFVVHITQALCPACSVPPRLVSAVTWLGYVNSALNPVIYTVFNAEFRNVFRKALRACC
Description: as §1

[3] = biological target: T3, human D2short receptor (Homo sapiens, UniProt P14416); assay: radioligand binding with [^3H]spiperone, D2short; settings: read-out: Ki D2sh
T3 construct: expressed in transfected cells; host or cells: Chinese hamster ovary (CHO) cells, membranes
Description: as §1

[4] = biological target: T4, 5-HT1A receptor (Sus scrofa, UniProt A0A4X1UTF5); assay: radioligand binding, porcine cortical membranes, [^3H]8-OH-DPAT and [^3H]WAY 100635
T4 construct: membrane preparations from porcine cortical material; from tissue; host or cells: porcine cerebral cortex membranes
T4 sequence (A0A4X1UTF5 1-422): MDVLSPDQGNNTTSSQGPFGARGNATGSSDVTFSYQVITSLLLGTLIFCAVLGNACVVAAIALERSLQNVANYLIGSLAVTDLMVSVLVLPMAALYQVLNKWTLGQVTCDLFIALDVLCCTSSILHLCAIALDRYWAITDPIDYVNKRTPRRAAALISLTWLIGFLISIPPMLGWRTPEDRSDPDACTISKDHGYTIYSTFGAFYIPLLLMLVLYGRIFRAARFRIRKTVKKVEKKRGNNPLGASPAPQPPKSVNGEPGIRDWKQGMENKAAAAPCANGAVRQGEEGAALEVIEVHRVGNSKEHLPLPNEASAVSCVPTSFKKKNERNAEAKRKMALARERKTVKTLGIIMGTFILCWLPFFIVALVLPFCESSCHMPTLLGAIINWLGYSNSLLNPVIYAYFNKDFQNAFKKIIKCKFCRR

[5] = biological target: dopamine D2short receptor (Homo sapiens, UniProt P14416); assay: [^35S]GTPγS-incorporation assay, intrinsic activity
[6] = biological target: T5, human D3 receptor (Homo sapiens, UniProt P35462); assay: radioligand binding with [^3H]spiperone, D3
T5 construct: expressed in transfected cells; host or cells: Chinese hamster ovary (CHO) cells, membranes
Description: as §1

[7] = biological target: T6, 5-HT2 receptor (Sus scrofa, UniProt P50129); assay: radioligand binding, porcine cortical membranes, [^3H]ketanserin
T6 construct: membrane preparations from porcine cortical material; from tissue; host or cells: porcine cerebral cortex membranes

[8] = [^3H]spiperone, CHO membranes, mean of 2 to 4 experiments
[9] = ether alkylene linker compounds
[10] = read-out: D2short: [^35S]GTPγS intrinsic activity, % activity of quinpirol
[11] = porcine cortical membranes, [^3H]ketanserin
[12] = read-out: D2short: [^35S]GTPγS intrinsic activity

T3 sequence (P14416 1-414 isoform P14416-2): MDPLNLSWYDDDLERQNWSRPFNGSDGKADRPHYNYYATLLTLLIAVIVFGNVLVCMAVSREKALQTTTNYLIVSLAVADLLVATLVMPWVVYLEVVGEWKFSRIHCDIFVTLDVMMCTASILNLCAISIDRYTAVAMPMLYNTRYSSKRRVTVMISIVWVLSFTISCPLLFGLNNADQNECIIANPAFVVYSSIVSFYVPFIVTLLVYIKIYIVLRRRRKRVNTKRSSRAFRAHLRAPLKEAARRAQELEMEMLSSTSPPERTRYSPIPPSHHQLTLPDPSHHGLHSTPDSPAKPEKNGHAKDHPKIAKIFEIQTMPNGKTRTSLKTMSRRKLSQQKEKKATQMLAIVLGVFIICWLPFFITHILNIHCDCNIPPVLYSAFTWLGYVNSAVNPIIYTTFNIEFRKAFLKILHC
Chain of dopamine D2short receptor (P14416 1-414 isoform P14416-2): as above
T5 sequence (P35462 whole entry): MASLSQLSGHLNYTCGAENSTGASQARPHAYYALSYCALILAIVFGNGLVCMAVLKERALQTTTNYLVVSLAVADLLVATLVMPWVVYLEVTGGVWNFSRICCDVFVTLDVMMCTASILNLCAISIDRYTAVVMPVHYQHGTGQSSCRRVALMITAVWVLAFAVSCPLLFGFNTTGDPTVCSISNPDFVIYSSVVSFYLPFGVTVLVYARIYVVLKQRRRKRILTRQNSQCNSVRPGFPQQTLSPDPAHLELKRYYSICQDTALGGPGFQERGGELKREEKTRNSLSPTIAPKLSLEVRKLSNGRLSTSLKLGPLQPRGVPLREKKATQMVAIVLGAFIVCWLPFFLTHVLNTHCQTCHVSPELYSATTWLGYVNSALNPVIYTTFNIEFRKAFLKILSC
T6 sequence (P50129 whole entry): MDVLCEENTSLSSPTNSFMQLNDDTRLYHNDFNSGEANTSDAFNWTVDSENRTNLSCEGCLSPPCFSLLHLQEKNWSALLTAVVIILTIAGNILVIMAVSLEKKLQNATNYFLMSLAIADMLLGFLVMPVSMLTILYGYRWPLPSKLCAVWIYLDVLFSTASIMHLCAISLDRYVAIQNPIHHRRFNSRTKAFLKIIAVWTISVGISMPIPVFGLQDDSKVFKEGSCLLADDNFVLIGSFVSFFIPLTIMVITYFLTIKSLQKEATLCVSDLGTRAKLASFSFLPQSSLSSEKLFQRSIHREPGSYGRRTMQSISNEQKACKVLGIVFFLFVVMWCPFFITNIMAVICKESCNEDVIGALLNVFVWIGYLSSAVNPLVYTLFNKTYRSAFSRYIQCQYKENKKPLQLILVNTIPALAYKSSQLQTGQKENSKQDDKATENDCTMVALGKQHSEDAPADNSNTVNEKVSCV
T1 sequence (P14416 whole entry): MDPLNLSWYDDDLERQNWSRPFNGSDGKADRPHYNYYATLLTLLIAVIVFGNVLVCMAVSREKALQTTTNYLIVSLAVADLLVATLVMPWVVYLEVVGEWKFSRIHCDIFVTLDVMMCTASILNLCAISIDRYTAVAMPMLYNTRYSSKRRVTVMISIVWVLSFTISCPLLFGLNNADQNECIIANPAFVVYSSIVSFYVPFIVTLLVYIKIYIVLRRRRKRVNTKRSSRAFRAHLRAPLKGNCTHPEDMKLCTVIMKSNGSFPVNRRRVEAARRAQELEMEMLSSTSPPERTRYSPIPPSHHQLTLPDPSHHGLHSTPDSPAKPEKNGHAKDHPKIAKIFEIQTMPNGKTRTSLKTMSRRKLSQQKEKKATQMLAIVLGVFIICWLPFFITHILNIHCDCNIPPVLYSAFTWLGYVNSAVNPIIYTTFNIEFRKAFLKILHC

| Compound | Ki [1, 8] [nM] | Ki [1, 9] [nM] | Ki [2, 8] [nM] | Ki [2, 9] [nM] | Ki [3, 8] [nM] | Ki [3, 9] [nM] | Ki [4, 9] [nM] | Ki ([4]; porcine cortical membranes) [nM] | melting point [°C] | Emax [5, 10] [%] | Ki [6, 8] [nM] | Ki [6, 9] [nM] | Ki [7, 9] [nM] | Ki [7, 11] [nM] | Emax [5, 12] [%] |
| --- | --- | --- | --- | --- | --- | --- | --- | --- | --- | --- | --- | --- | --- | --- | --- |
| Clc1cccc(N2CCN(CCCCOc3cc4ccccn4n3)CC2)c1Cl [Example E1, 2-[4-[4-(2,3-Dichlorophenyl)piperazin-1-yl]butoxy]pyrazolo[1,5-a]pyridine] | < 30 | 9.4 | 30 to 300 | 33 | < 30 | 10 | 17 | < 30 | 161 | < 15 | < 30 | 3.5 | 150 | 30 to 300 | – |
| O=Cc1c(OCCCCN2CCN(c3cccc(Cl)c3Cl)CC2)nn2ccccc12 [Example E4, 2-[4-[4-(2,3-Dichlorophenyl)piperazin-1-yl]butoxy]pyrazolo[1,5-a]pyridine-3-carbaldehyde] | < 30 | – | < 30 | – | < 30 | – | – | < 30 | 100 | 15 to 40 | < 30 | – | – | 30 to 300 | – |
| Clc1ccccc1N1CCN(CCCCOc2ccn3ncc(Br)c3c2)CC1 [Example E44, 3-Bromo-5-[4-[4-(2-chlorophenyl)piperazin-1-yl]butoxy]pyrazolo[1,5-a]pyridine] | – | – | – | – | – | – | – | – | 84 | – | – | – | – | – | 15 to 40 |
| Clc1ccccc1N1CCN(CCCCOc2ccn3ncc(I)c3c2)CC1 [Example E50, 5-[4-[4-(2-Chlorophenyl)piperazin-1-yl]butoxy]-3-iodo-pyrazolo[1,5-a]pyridine] | – | – | – | – | – | – | – | 30 to 300 | 94 | – | – | – | – | 301 to 3000 | – |
| Clc1ccccc1N1CCN(CCCCOc2cccc3ccnn23)CC1 [Example E59, 7-[4-[4-(2-Chlorophenyl)piperazin-1-yl]butoxy]pyrazolo[1,5-a]pyridine] | 30 to 300 | – | < 30 | – | 30 to 300 | – | – | 30 to 300 | – | – | < 30 | – | – | 30 to 300 | 15 to 40 |
| COc1ccccc1N1CCN(CCCCOc2cccc3c(C=O)cnn23)CC1 [Example E61, 7-[4-[4-(2-Methoxyphenyl)piperazin-1-yl]butoxy]pyrazolo[1,5-a]pyridine-3-carbaldehyde] | 301 to 3000 | – | 301 to 3000 | – | 30 to 300 | – | – | 30 to 300 | – | < 15 | 301 to 3000 | – | – | > 3000 | – |
| O=Cc1cnn2c(OCCCCN3CCN(c4ccccc4Cl)CC3)cccc12 [Example E62, 7-[4-[4-(2-Chlorophenyl)piperazin-1-yl]butoxy]pyrazolo[1,5-a]pyridine-3-carbaldehyde] | 30 to 300 | – | 30 to 300 | – | < 30 | – | – | < 30 | – | – | 30 to 300 | – | – | 30 to 300 | 15 to 40 |
| Clc1cccc(N2CCN(CCCCOc3ccn4nnnc4c3)CC2)c1Cl [Example E63, 7-[4-[4-(2,3-Dichlorophenyl)piperazin-1-yl]butoxy]tetrazolo[1,5-a]pyridine] | < 30 | – | < 30 | – | < 30 | – | – | 30 to 300 | 138 | – | < 30 | – | – | 30 to 300 | – |
| O=[N+]([O-])c1cccc(N2CCN(CCCCOc3ccn4nccc4c3)CC2)c1 [Example E65, 5-[4-[4-(3-Nitrophenyl)piperazin-1-yl]butoxy]pyrazolo[1,5-a]pyridine] | – | – | – | – | – | – | – | – | 73 | – | – | – | – | – | – |
| Nc1cccc(N2CCN(CCCCOc3ccn4nccc4c3)CC2)c1 [Example E66, 5-[4-[4-(3-Aminophenyl)piperazin-1-yl]butoxy]pyrazolo[1,5-a]pyridine] | – | – | – | – | – | – | – | – | 86 | – | – | – | – | – | – |
| CC(=O)Nc1cccc(N2CCN(CCCCOc3ccn4ncc(C=O)c4c3)CC2)c1 [Example E70, N-[3-[4-[4-(3-Formylpyrazolo[1,5-a]pyridin-5-yloxy)butyl]piperazin-1-yl]phenyl]acetamide] | 30 to 300 | – | 301 to 3000 | – | 30 to 300 | – | – | < 30 | – | 15 to 40 | 301 to 3000 | – | – | > 3000 | – |
| COc1ccccc1N1CCN(CCCCOc2ccn3ncc(CO)c3c2)CC1 [Example E72] | < 30 | – | < 30 | – | < 30 | – | – | < 30 | – | 15 to 40 | < 30 | – | – | 301 to 3000 | – |
| COc1ccccc1N1CCN(CCCCOc2ccn3ncc(C)c3c2)CC1 [Example E75, 5-[4-[4-(2-Methoxyphenyl)piperazin-1-yl]butoxy]-3-methylpyrazolo[1,5-a]pyridine] | < 30 | – | < 30 | – | < 30 | – | – | < 30 | – | < 15 | < 30 | – | – | 301 to 3000 | – |
| COc1ccccc1N1CCN(CCCCOc2ccn3ncc(CN)c3c2)CC1 [Example E78, 3-Aminomethyl-5-[4-[4-(2-methoxyphenyl)piperazin-1-yl]butoxy]pyrazolo[1,5-a]pyridine] | < 30 | – | < 30 | – | < 30 | – | – | < 30 | – | 15 to 40 | < 30 | – | – | 301 to 3000 | – |
| COc1ccccc1N1CCN(CCCCOc2ccn3ncc(CNC(C)=O)c3c2)CC1 [Example E81] | < 30 | – | 30 to 300 | – | < 30 | – | – | < 30 | – | < 15 | < 30 | – | – | 301 to 3000 | – |
| COc1ccccc1N1CCN(CCCCOc2ccn3nnnc3c2)CC1 [Example E97, 7-[4-[4-(2-Methoxyphenyl)piperazin-1-yl]butoxy]tetrazolo[1,5-a]pyridine] | < 30 | – | < 30 | – | < 30 | – | – | < 30 | 124 | – | < 30 | – | – | > 3000 | – |
| Clc1ccccc1N1CCN(CCCCOc2ccn3nnnc3c2)CC1 [Example E98, 7-[4-[4-(2-Chlorophenyl)piperazin-1-yl]butoxy]tetrazolo[1,5-a]pyridine] | < 30 | – | < 30 | – | < 30 | – | – | < 30 | 101 | – | < 30 | – | – | 301 to 3000 | – |
